Results: patent publication US9796711B2, “Substituted pyrazolo[3,4-b]pyridin-6-carboxylic acids and method of use” (AbbVie S.àr.l., priority 2015, dated 2017)

How the values were obtained:
[1] = biological target: T1, ΔF508-CFTR (Homo sapiens, UniProt P13569, DEL508-508); assay: CFTR cell surface levels using HRP-tagged ΔF508-CFTR expressing CFBE cells, in the presence of a co-corrector; type: cell-based; conditions: HRP-tagged ΔF508-CFTR expressing CFBE cells, in the presence of 3 μM co-corrector; for EC50: read-out: EC50
T1 construct: host or cells: CFBE41o-, doxycycline-inducible
Summary of the method: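 Cells were seeded with 0.5 μg/mL doxycycline and held 68 h at 37 °C. Test compounds plus 3 μM co-corrector (final 0.1% DMSO) were then added for 20 h at 33 °C. Washed cells received HRP substrate, and luminescence was normalized between DMSO and 3 μM co-corrector controls.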

[2] = biological target: T1, ΔF508-CFTR; assay: CFTR cell surface levels using HRP-tagged ΔF508-CFTR expressing CFBE cells, intrinsic corrector capacity; type: cell-based; conditions: for EC50: read-out: EC50
Summary of the method: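 Here the cells express ΔF508-CFTR with horseradish peroxidase inserted in extracellular loop 4, so only rescued channel at the surface gives luminescent signal. Compounds act on their own, 20 h at the reduced temperature of 33 °C; values are percent activity relative to DMSO and a 3 μM corrector.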

[3] = HRP-tagged ΔF508-CFTR CFBE41o- cells, compounds alone (intrinsic corrector capacity), 20 hours at 33° C., positive control 3 μM corrector
[4] = HRP-tagged ΔF508-CFTR CFBE41o- cells, compounds alone (intrinsic corrector capacity), 20 hours at 33° C.
[5] = HRP-tagged ΔF508-CFTR expressing CFBE cells, intrinsic corrector capacity (no co-corrector), 33° C., 20 hours
[6] = HRP-tagged ΔF508-CFTR CFBE cells, compound alone (intrinsic corrector capacity), 20 hours at 33° C.

T1 sequence (P13569 with tags, fused parts or gaps DEL508-508): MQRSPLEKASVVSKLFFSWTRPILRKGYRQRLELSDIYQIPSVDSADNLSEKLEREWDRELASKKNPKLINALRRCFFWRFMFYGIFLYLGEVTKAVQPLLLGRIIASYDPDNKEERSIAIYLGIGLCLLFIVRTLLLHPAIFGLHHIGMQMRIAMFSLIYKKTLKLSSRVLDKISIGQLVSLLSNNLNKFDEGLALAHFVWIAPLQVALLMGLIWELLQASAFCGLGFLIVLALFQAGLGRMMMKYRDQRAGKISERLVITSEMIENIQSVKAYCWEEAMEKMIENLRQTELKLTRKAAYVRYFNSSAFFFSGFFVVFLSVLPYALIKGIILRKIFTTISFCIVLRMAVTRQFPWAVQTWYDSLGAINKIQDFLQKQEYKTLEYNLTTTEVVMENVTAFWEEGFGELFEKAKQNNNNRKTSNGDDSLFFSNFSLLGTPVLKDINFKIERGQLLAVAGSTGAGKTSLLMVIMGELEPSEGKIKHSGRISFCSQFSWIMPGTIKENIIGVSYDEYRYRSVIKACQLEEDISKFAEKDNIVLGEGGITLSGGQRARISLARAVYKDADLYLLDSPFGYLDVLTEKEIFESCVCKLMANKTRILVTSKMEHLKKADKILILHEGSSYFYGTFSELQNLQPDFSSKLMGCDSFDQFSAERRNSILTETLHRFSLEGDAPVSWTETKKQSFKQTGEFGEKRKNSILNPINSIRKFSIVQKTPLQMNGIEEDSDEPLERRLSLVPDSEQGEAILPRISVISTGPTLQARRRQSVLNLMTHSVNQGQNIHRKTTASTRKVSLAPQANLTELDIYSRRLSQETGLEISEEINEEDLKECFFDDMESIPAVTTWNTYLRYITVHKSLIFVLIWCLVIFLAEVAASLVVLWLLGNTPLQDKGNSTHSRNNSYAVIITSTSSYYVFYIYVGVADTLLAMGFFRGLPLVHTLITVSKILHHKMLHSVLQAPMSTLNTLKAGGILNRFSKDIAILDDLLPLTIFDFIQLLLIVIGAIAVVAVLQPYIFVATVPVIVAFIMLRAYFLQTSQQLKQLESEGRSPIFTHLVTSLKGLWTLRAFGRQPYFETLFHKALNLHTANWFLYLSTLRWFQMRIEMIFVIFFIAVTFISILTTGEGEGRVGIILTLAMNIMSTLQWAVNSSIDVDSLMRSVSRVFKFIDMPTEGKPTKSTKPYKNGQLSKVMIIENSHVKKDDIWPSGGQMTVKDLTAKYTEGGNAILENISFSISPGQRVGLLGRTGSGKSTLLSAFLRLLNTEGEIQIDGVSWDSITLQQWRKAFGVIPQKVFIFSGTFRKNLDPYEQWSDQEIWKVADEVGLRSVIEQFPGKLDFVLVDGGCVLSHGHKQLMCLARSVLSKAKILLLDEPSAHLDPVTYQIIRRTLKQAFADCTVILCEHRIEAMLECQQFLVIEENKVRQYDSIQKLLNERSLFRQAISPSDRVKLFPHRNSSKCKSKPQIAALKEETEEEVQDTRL

Row | SMILES | % Activation [1] [%] | EC50 [1] [nM] | % Activation [2, 3] [%] | EC50 [2, 4] [nM] | % Activation [2, 5] [%] | EC50 [2, 5] [nM] | % Activation [2, 6] [%] | EC50 [2, 6] [nM]
1 | Cc1nn(-c2ccccc2)c2nc(C(=O)O)cc(OC[C@H](F)C3CCN(C)CC3)c12 [compound 380, 4-[(2R)-2-fluoro-2-(1-methylpiperidin-4-yl)ethoxy]-3-methyl-1-phenyl-1H-pyrazolo[3,4-b]pyridine-6-carboxylic acid] | 141.7 | 950 | 14.735 | 5010 | – | – | – | –
2 | O=C(O)c1cc(N2CCC(CN3CCCC(F)(F)C3)CC2)c2c(C3CCC3)nn(-c3ccccc3)c2n1 [compound 830, 3-cyclobutyl-4-{4-[(3,3-difluoropiperidin-1-yl)methyl]piperidin-1-yl}-1-phenyl-1H-pyrazolo[3,4-b]pyridine-6-carboxylic acid] | 588.2 | 63.2 | – | – | 353.9 | 115 | – | –
3 | CN(C)Cc1nn(-c2ccccc2)c2nc(C(=O)O)cc(-c3ccc(N4CCOCC4)cc3)c12 [compound 87, 3-[(dimethylamino)methyl]-4-[4-(morpholin-4-yl)phenyl]-1-phenyl-1H-pyrazolo[3,4-b]pyridine-6-carboxylic acid] | 148.9 | 3340 | 28.91 | > 10000 | – | – | – | –
4 | O=C(CN1CCN(c2cc(C(=O)O)nc3c2c(C2CCC2)nn3-c2ccccc2)CC1)NC1CCCCC1 [compound 540, 3-cyclobutyl-4-{4-[2-(cyclohexylamino)-2-oxoethyl]piperazin-1-yl}-1-phenyl-1H-pyrazolo[3,4-b]pyridine-6-carboxylic acid] | 314.05 | 324 | – | – | 142.2 | 452 | – | –
5 | Cc1nn(-c2ccn(C)c(=O)c2)c2nc(C(=O)O)cc(-c3ccc(N4CCOCC4)cc3)c12 [compound 94, 3-methyl-1-(1-methyl-2-oxo-1,2-dihydropyridin-4-yl)-4-[4-(morpholin-4-yl)phenyl]-1H-pyrazolo[3,4-b]pyridine-6-carboxylic acid] | 119.4 | > 10000 | 3.061 | > 10000 | – | – | – | –
6 | CC(C)c1nn(-c2ccc(OC(F)(F)F)cc2)c2nc(C(=O)O)cc(-c3ccc(N4CCOCC4)cc3)c12 [compound 43, 4-[4-(morpholin-4-yl)phenyl]-3-(propan-2-yl)-1-[4-(trifluoromethoxy)phenyl]-1H-pyrazolo[3,4-b]pyridine-6-carboxylic acid] | 360.8 | 371 | 187.4 | 408 | – | – | – | –
7 | O=C(O)c1cc(N2CCC(N3CCOCC3)CC2)c2c(C3CCC3)nn(-c3ccc(OC(F)F)cc3)c2n1 [compound 914, 3-cyclobutyl-1-[4-(difluoromethoxy)phenyl]-4-[4-(morpholin-4-yl)piperidin-1-yl]-1H-pyrazolo[3,4-b]pyridine-6-carboxylic acid] | 429.25 | 173 | – | – | – | – | 228.2 | 546
8 | Cc1nn(-c2ccccc2)c2nc(C(=O)O)cc(N3CC(N4CCOCC4)C3)c12 [compound 302, 3-methyl-4-[3-(morpholin-4-yl)azetidin-1-yl]-1-phenyl-1H-pyrazolo[3,4-b]pyridine-6-carboxylic acid] | 131.6 | 7500 | 18.02 | 7500 | – | – | – | –
9 | CC(C)c1nn(-c2cc(N3CCOCC3)ccn2)c2nc(C(=O)O)cc(-c3ccc(N4CCOCC4)cc3)c12 [compound 241, 4-[4-(morpholin-4-yl)phenyl]-1-[4-(morpholin-4-yl)pyridin-2-yl]-3-(propan-2-yl)-1H-pyrazolo[3,4-b]pyridine-6-carboxylic acid] | 259.75 | 2140 | 60.46 | 3340 | – | – | – | –
10 | CC(C)c1nn(-c2ccc(F)cc2)c2nc(C(=O)O)cc(N3CCN(CCOCCO)CC3)c12 [compound 778, 1-(4-fluorophenyl)-4-{4-[2-(2-hydroxyethoxy)ethyl]piperazin-1-yl}-3-(propan-2-yl)-1H-pyrazolo[3,4-b]pyridine-6-carboxylic acid] | 149 | 1670 | – | – | 9.442 | 5000 | – | –
11 | COC1CN(c2cc(C(=O)O)nc3c2c(C(C)C)nn3-c2cccc(C)c2)C1 [compound 212, 4-(3-methoxyazetidin-1-yl)-1-(3-methylphenyl)-3-(propan-2-yl)-1H-pyrazolo[3,4-b]pyridine-6-carboxylic acid] | 386.9 | 1490 | 139.7 | 2640 | – | – | – | –
12 | O=C(O)c1cc(N2CC[C@@H](O)[C@H](F)C2)c2c(C3CCC3)nn(-c3ccccc3)c2n1 [compound 464, 3-cyclobutyl-4-[(3R,4R)-3-fluoro-4-hydroxypiperidin-1-yl]-1-phenyl-1H-pyrazolo[3,4-b]pyridine-6-carboxylic acid] | 328.25 | 408 | – | – | 163.6 | 1140 | – | –
13 | O=C(O)c1cc(OCCN2CCCCCC2)c2c(C3CCC3)nn(-c3ccccc3)c2n1 [compound 643, 4-[2-(azepan-1-yl)ethoxy]-3-cyclobutyl-1-phenyl-1H-pyrazolo[3,4-b]pyridine-6-carboxylic acid] | 271.8 | 1260 | – | – | 95.84 | 2900 | – | –
14 | COCC(COC)Oc1cc(C(=O)O)nc2c1c(C1CCC1)nn2-c1ccccc1 [compound 491, 3-cyclobutyl-4-[(1,3-dimethoxypropan-2-yl)oxy]-1-phenyl-1H-pyrazolo[3,4-b]pyridine-6-carboxylic acid] | 256.5 | 966 | – | – | 82.97 | 2280 | – | –
15 | CCOC(=O)N1CCN(C2CCN(c3cc(C(=O)O)nc4c3c(C3CCC3)nn4-c3ccc(F)cc3)CC2)CC1 [compound 891, 3-cyclobutyl-4-{4-[4-(ethoxycarbonyl)piperazin-1-yl]piperidin-1-yl}-1-(4-fluorophenyl)-1H-pyrazolo[3,4-b]pyridine-6-carboxylic acid] | 564.5 | 51 | – | – | 367.25 | 93.1 | – | –
16 | Cc1nn(-c2cccc(N(C)C)c2)c2nc(C(=O)O)cc(-c3cnc(N4CCOCC4)nc3)c12 [compound 90, 1-[3-(dimethylamino)phenyl]-3-methyl-4-[2-(morpholin-4-yl)pyrimidin-5-yl]-1H-pyrazolo[3,4-b]pyridine-6-carboxylic acid] | 367.15 | 883 | 169.65 | 1040 | – | – | – | –
17 | CC1CN(c2cc(C(=O)O)nc3c2c(C2CCC2)nn3-c2ccccc2)C1 [compound 440, 3-cyclobutyl-4-(3-methylazetidin-1-yl)-1-phenyl-1H-pyrazolo[3,4-b]pyridine-6-carboxylic acid] | 308.95 | 1930 | – | – | 104.7 | 1920 | – | –
18 | CCCN1CCN(c2cc(C(=O)O)nc3c2c(C(C)C)nn3-c2ccc(F)cc2)CC1 [compound 777, 1-(4-fluorophenyl)-3-(propan-2-yl)-4-(4-propylpiperazin-1-yl)-1H-pyrazolo[3,4-b]pyridine-6-carboxylic acid] | 254.9 | 955 | – | – | 95 | 1670 | – | –
19 | CC(C)c1nn(-c2cccc(N3CCOCC3)c2)c2nc(C(=O)O)cc(-c3cnc(N(C)C)nc3)c12 [compound 88, 4-[2-(dimethylamino)pyrimidin-5-yl]-1-[3-(morpholin-4-yl)phenyl]-3-(propan-2-yl)-1H-pyrazolo[3,4-b]pyridine-6-carboxylic acid] | 453.15 | 525 | 288.95 | 693 | – | – | – | –
20 | CC(C)c1nn(-c2cccc(N(C)C)c2)c2nc(C(=O)O)cc(N3CCC(C#N)CC3)c12 [compound 329, 4-(4-cyanopiperidin-1-yl)-1-[3-(dimethylamino)phenyl]-3-(propan-2-yl)-1H-pyrazolo[3,4-b]pyridine-6-carboxylic acid] | 454.57 | 307 | 239.4 | 558 | – | – | – | –
21 | COC1CCCN(c2cc(C(=O)O)nc3c2c(C(C)C)nn3-c2cccc(C)c2)C1 (centres unmarked) [compound 190, 4-(3-methoxypiperidin-1-yl)-1-(3-methylphenyl)-3-(propan-2-yl)-1H-pyrazolo[3,4-b]pyridine-6-carboxylic acid] | 301.85 | 634 | 136.12 | 929 | – | – | – | –
22 | Cc1nn(-c2ccccc2)c2nc(C(=O)O)cc(N3CC4CC4C3)c12 (centres unmarked) [compound 304, 4-(3-azabicyclo[3.1.0]hexan-3-yl)-3-methyl-1-phenyl-1H-pyrazolo[3,4-b]pyridine-6-carboxylic acid] | 254.9 | 1990 | 98.425 | 2510 | – | – | – | –
23 | O=C(O)c1cc(N2CCC(N3CCC(C(F)(F)F)C3)CC2)c2c(C3CCC3)nn(-c3ccc(F)cc3)c2n1 (centres unmarked) [compound 869] | 513.05 | 37.7 | – | – | 299.1 | 113 | – | –
